# What was measured:
# Experiment in all cases: relative viability (nuclei count vs DMSO), 5 days (fraction); higher = more cells survive
# IU1-47 + Trametinib = compound: CC1=CC(=C(N1C2=CC=C(C=C2)Cl)C)C(=O)CN3CCCCC3 [IU1-47] + CC(=O)Nc1cccc(-n2c(=O)n(C3CC3)c(=O)c3c(Nc4ccc(I)cc4F)n(C)c(=O)c(C)c32)c1 [Trametinib] (partner 0.02 µM)
# Summary of the method: (§1)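 After 5 days of treatment, lung cancer cells in 1536-well plates were fixed and stained in a single step (final 0.05% Triton X-100, 1% formaldehyde, 1 ug/ml Hoechst) and their nuclei counted on 4× images. Treatment had been applied by pin tool the day after seeding as one drug alone or as a fixed anchor-drug dose with five library-drug doses (not always all listed) in √10 steps. Relative viability is the nuclei count of treated wells divided by that of vehicle wells, and values are medians of duplicate plates.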
# IU1-47 + Phenformin = compound: CC1=CC(=C(N1C2=CC=C(C=C2)Cl)C)C(=O)CN3CCCCC3 [IU1-47] + N=C(N)NC(=N)NCCc1ccccc1 [Phenformin] (partner 250 µM)
# Summary of the method: as §1
# IU1-47 + Decitabine = compound: CC1=CC(=C(N1C2=CC=C(C=C2)Cl)C)C(=O)CN3CCCCC3 [IU1-47] + Nc1ncn([C@H]2C[C@H](O)[C@@H](CO)O2)c(=O)n1 [Decitabine] (partner 2 µM)
# Summary of the method: as §1
# FG-4592 + Navitoclax = compound: Cc1nc(C(=O)NCC(=O)O)c(O)c2ccc(Oc3ccccc3)cc12 [FG-4592] + CC1(C)CCC(c2ccc(Cl)cc2)=C(CN2CCN(c3ccc(C(=O)NS(=O)(=O)c4ccc(N[C@H](CCN5CCOCC5)CSc5ccccc5)c(S(=O)(=O)C(F)(F)F)c4)cc3)CC2)C1 [Navitoclax] (partner 0.5 µM)
# Summary of the method: as §1
Cell Line,relative viability (IU1-47 + Trametinib; first compound 0.08 µM),relative viability (IU1-47 + Trametinib; first compound 0.253 µM),relative viability (IU1-47 + Trametinib; first compound 0.8 µM),relative viability (IU1-47 + Trametinib; first compound 2.53 µM),relative viability (IU1-47 + Trametinib; first compound 8 µM),relative viability (IU1-47 + Phenformin; first compound 0.08 µM),relative viability (IU1-47 + Phenformin; first compound 0.253 µM),relative viability (IU1-47 + Phenformin; first compound 0.8 µM),relative viability (IU1-47 + Phenformin; first compound 2.53 µM),relative viability (IU1-47 + Phenformin; first compound 8 µM),relative viability (IU1-47 + Decitabine; first compound 0.08 µM),relative viability (IU1-47 + Decitabine; first compound 0.253 µM),relative viability (IU1-47 + Decitabine; first compound 0.8 µM),relative viability (IU1-47 + Decitabine; first compound 2.53 µM),relative viability (IU1-47 + Decitabine; first compound 8 µM),relative viability (FG-4592 + Navitoclax; first compound 0.08 µM),relative viability (FG-4592 + Navitoclax; first compound 0.253 µM),relative viability (FG-4592 + Navitoclax; first compound 0.8 µM),relative viability (FG-4592 + Navitoclax; first compound 2.53 µM),relative viability (FG-4592 + Navitoclax; first compound 8 µM)
LOU-NH91,0.904,0.845,0.844,0.795,0.749,0.855,0.942,0.771,0.672,0.698,0.909,0.854,0.797,0.816,0.797,0.709,0.624,0.635,0.711,0.617
NCI-H3122,0.253,0.287,0.268,0.309,0.222,0.398,0.373,0.366,0.372,0.347,0.416,0.402,0.517,0.491,0.449,1.03,0.978,0.997,1.03,1.05
HCC-827,0.565,0.481,0.596,0.54,0.517,0.44,0.425,0.416,0.464,0.37,0.336,0.323,0.351,0.31,0.31,1.03,1.01,0.992,1.02,1.09
SK-LU-1,0.52,0.542,0.543,0.491,0.395,0.574,0.507,0.487,0.581,0.419,0.57,0.695,0.692,0.56,0.543,0.72,0.554,0.959,,0.777
NCI-H1975,0.337,0.324,0.464,0.328,0.322,0.411,0.411,0.409,0.419,0.384,0.397,0.381,0.585,0.361,0.378,1.21,1.1,1.29,1.1,1.06
NCI-H1651,0.885,0.856,0.806,0.824,0.811,0.342,0.308,0.373,0.319,0.297,0.627,0.672,0.522,0.357,0.579,1.13,0.946,1.08,1.18,0.833
NCI-H441,0.37,0.338,0.395,0.595,0.439,0.994,0.978,0.787,0.887,0.787,0.254,0.257,0.212,0.254,0.234,0.606,1.01,0.573,0.964,0.588
LCLC-97TM1,0.201,0.188,0.198,,0.179,0.441,0.409,0.435,0.428,0.461,0.287,0.252,0.244,,0.234,0.396,0.489,0.306,,0.496
NCI-H727,0.438,0.349,0.369,0.375,0.368,0.675,0.712,0.56,0.63,0.387,0.875,0.894,0.989,0.722,0.866,0.537,0.403,0.413,0.63,0.525
NCI-H1355,0.432,0.441,0.386,,0.35,0.432,0.501,0.441,,0.398,0.364,0.342,0.348,,0.349,1.08,0.94,,0.901,0.862
HOP-62,0.4,0.332,0.387,0.383,0.348,0.756,0.792,0.719,0.675,0.543,0.233,0.218,0.224,0.247,0.208,1.04,1.01,1.2,0.983,1.03
NCI-H2085,0.515,0.471,0.577,0.614,0.523,0.736,0.711,0.713,0.771,0.675,0.54,0.549,0.566,0.519,0.478,1.18,1.09,1.1,1.15,1.08

# — the supplement of paper PMC10307832
